Patent publication US10919911B2, “Tricyclic ASK1 inhibitors” (Terns, Inc., priority 2018, dated 2021)

Molecular target: ASK1 kinase (Homo sapiens (Human), UniProt Q99683)
Experiment: RBC Kinase Assay (33P-ATP radiometric, myelin basic protein substrate)
Assay type: biochemical
Conditions: 20 ng ASK1 kinase, MBP substrate, 120 min at room temperature, 1% DMSO
Protocol: Example B1. RBC Kinase Assay Protocol
Base Reaction buffer: 20 mM Hepes (pH 7.5), 10 mM MgCl2, 1 mM EGTA, 0.02% Brij35, 0.02 mg/ml BSA, 0.1 mM Na3VO4, 2 mM DTT, and 1% DMSO were used for the assay.
Myelin base protein (MPB) was prepared in freshly prepared Base Reaction Buffer. 20 ng of ASK1 kinase was delivered into the substrate solution and gently mixed. Compounds in DMSO were delivered into the kinase reaction mixture (final DMSO concentration 1%). Commercially available 33P-ATP was delivered into the reaction mixture to initiate the reaction. The kinase reaction was incubated for 120 min. at room temperature. Reactions were spotted onto P81 ion exchange paper (Whatman #3698-915). Filters were washed extensively in 0.75% Phosphoric acid. Radioactivity on filters was read, and IC50 values were determined.

ASK1 kinase, sequence (Q99683 whole entry): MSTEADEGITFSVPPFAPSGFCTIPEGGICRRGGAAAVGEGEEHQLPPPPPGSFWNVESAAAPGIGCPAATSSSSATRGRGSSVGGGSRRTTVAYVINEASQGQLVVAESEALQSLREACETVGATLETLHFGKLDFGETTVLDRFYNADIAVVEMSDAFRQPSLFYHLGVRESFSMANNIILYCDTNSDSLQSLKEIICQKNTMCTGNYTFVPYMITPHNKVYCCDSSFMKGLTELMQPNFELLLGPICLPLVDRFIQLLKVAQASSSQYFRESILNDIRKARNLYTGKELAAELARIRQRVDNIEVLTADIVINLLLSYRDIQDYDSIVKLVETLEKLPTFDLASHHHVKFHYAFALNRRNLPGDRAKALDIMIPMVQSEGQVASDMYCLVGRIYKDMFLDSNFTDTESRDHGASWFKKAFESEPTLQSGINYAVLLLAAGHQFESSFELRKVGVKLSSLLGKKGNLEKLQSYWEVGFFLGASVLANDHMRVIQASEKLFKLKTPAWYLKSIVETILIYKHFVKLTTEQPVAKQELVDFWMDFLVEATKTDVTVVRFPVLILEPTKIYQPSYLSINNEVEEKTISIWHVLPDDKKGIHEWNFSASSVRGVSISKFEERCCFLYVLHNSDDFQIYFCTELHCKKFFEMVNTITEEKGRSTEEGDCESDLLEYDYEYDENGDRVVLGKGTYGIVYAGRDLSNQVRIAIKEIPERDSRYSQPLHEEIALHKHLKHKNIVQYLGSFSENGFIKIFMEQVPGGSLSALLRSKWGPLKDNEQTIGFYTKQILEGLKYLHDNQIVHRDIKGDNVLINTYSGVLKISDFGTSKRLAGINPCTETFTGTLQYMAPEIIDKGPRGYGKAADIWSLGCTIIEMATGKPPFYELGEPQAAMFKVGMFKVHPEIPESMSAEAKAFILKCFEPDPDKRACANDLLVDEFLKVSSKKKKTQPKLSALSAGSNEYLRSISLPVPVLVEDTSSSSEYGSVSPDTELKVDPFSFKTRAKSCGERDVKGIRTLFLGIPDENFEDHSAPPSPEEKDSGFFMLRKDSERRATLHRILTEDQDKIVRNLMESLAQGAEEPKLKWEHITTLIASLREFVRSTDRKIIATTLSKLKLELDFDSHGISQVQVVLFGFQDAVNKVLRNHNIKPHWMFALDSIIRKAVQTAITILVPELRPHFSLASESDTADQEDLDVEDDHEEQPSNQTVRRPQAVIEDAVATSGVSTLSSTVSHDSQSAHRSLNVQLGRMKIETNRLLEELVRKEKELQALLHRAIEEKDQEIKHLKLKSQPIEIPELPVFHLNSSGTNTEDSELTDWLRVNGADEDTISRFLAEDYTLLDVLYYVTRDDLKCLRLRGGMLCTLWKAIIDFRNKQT

Compound	IC50 [nM]
Cc1cc(F)c(C(=O)Nc2cccc3c2OC[C@@H](C)n2cnnc2-3)cc1-n1cnc(C2CC2)c1 [Example 1, (R)-5-(4-cyclopropyl-1H-imidazol-1-yl)-2-fluoro-4-methyl-N-(5-methyl-5,6-dihydrobenzo[f][1,2,4]triazolo[4,3-d][1,4]oxazepin-8-yl)benzamide]	5.8
Cc1cc(F)c(C(=O)Nc2cccc3c2OC[C@H](C)n2cnnc2-3)cc1-n1cnc(C2CC2)c1 [Example 2, (S)-5-(4-cyclopropyl-1H-imidazol-1-yl)-2-fluoro-4-methyl-N-(5-methyl-5,6-dihydrobenzo[f][1,2,4]triazolo[4,3-d][1,4]oxazepin-8-yl)benzamide]	9.1
Cc1cc(F)c(C(=O)Nc2cccc3c2OC[C@H](C)n2nnnc2-3)cc1-n1cnc(C2CC2)c1 [Example 3, (S)-5-(4-cyclopropyl-1H-imidazol-1-yl)-2-fluoro-4-methyl-N-(5-methyl-5,6-dihydrobenzo[f]tetrazolo[1,5-d][1,4]oxazepin-8-yl)benzamide]	5.7
C[C@@H]1COc2c(NC(=O)c3cc(-n4cnc(C5CC5)c4)ccn3)cccc2-c2nnnn21 [Example 4, (R)-4-(4-cyclopropyl-1H-imidazol-1-yl)-N-(5-methyl-5,6-dihydrobenzo[f]tetrazolo[1,5-d][1,4]oxazepin-8-yl)picolinamide]	5.7
Cc1cc(F)c(C(=O)Nc2cccc3c2OC[C@@H](C)n2nnnc2-3)cc1-n1cnc(C2CC2)c1 [Example 5, (R)-5-(4-cyclopropyl-1H-imidazol-1-yl)-2-fluoro-4-methyl-N-(5-methyl-5,6-dihydrobenzo[f]tetrazolo[1,5-d][1,4]oxazepin-8-yl)benzamide]	5.8
C[C@H]1COc2c(NC(=O)c3cc(-n4cnc(C5CC5)c4)ccn3)cccc2-c2nnnn21 [Example 6, (S)-4-(4-cyclopropyl-1H-imidazol-1-yl)-N-(5-methyl-5,6-dihydrobenzo[f]tetrazolo[1,5-d][1,4]oxazepin-8-yl)picolinamide]	7.7
Cc1cc(F)c(C(=O)Nc2cccc3c2OCCn2cnnc2-3)cc1-n1cnc(C2CC2)c1 [Example 7, 5-(4-cyclopropyl-1H-imidazol-1-yl)-N-(5,6-dihydrobenzo[f][1,2,4]triazolo[4,3-d][1,4]oxazepin-8-yl)-2-fluoro-4-methylbenzamide]	8.5
Cc1cc(F)c(C(=O)Nc2cccc3c2OC[C@@H](C2CC2)n2cnnc2-3)cc1-n1cnc(C2CC2)c1 [Example 8, (R)-5-(4-cyclopropyl-1H-imidazol-1-yl)-N-(5-cyclopropyl-5,6-dihydrobenzo[f][1,2,4]triazolo[4,3-d][1,4]oxazepin-8-yl)-2-fluoro-4-methylbenzamide]	11.7
Cc1cc(F)c(C(=O)Nc2cccc3c2OCC(C)(C)n2cnnc2-3)cc1-n1cnc(C2CC2)c1 [Example 9, 5-(4-cyclopropyl-1H-imidazol-1-yl)-N-(5,5-dimethyl-5,6-dihydrobenzo[f][1,2,4]triazolo[4,3-d][1,4]oxazepin-8-yl)-2-fluoro-4-methylbenzamide]	5.6
C[C@@H]1COc2c(NC(=O)c3cc(-n4cnc(C5CC5)c4)ccn3)cccc2-c2nncn21 [Example 11, (R)-4-(4-cyclopropyl-1H-imidazol-1-yl)-N-(5-methyl-5,6-dihydrobenzo[f][1,2,4]triazolo[4,3-d][1,4]oxazepin-8-yl)picolinamide]	5.4
O=C(Nc1cccc2c1OCC(CO)n1cnnc1-2)c1cc(-n2cnc(C3CC3)c2)ccn1 (stereo not shown) [Example 15, 4-(4-cyclopropyl-1H-imidazol-1-yl)-N-(5-(hydroxymethyl)-5,6-dihydrobenzo[f][1,2,4]triazolo[4,3-d][1,4]oxazepin-8-yl)picolinamide]	5.8
Cc1cc(F)c(C(=O)Nc2cccc3c2OC[C@H](CO)n2cnnc2-3)cc1-n1cnc(C2CC2)c1 [Example 16, (S)-5-(4-cyclopropyl-1H-imidazol-1-yl)-2-fluoro-N-(5-(hydroxymethyl)-5,6-dihydrobenzo[f][1,2,4]triazolo[4,3-d][1,4]oxazepin-8-yl)-4-methylbenzamide]	5.2
Cc1cc(F)c(C(=O)Nc2cccc3c2OC[C@@H](CO)n2nnnc2-3)cc1-n1cnc(C2CC2)c1 [Example 17, (R)-5-(4-cyclopropyl-1H-imidazol-1-yl)-2-fluoro-N-(5-(hydroxymethyl)-5,6-dihydrobenzo[f]tetrazolo[1,5-d][1,4]oxazepin-8-yl)-4-methylbenzamide]	10.9
O=C(Nc1cccc2c1OC[C@@H](CO)n1nnnc1-2)c1cc(-n2cnc(C3CC3)c2)ccn1 [Example 18, (R)-4-(4-cyclopropyl-1H-imidazol-1-yl)-N-(5-(hydroxymethyl)-5,6-dihydrobenzo[f]tetrazolo[1,5-d][1,4]oxazepin-8-yl)picolinamide]	11.6
O=C(Nc1cccc2c1OCC1(CC1)n1nnnc1-2)c1cc(-n2cnc(C3CC3)c2)c(N2CCOCC2)cn1 [Example 20, 4-(4-cyclopropyl-1H-imidazol-1-yl)-5-morpholino-N-(6H-spiro[benzo[f]tetrazolo[1,5-d][1,4]oxazepine-5,1′-cyclopropan]-8-yl)picolinamide]	6
O=C(Nc1cccc2c1OCCn1nnnc1-2)c1cc(-n2cnc(C3CC3)c2)c(N2CCOCC2)cn1 [Example 21, 4-(4-cyclopropyl-1H-imidazol-1-yl)-N-(5,6-dihydrobenzo[f]tetrazolo[1,5-d][1,4]oxazepin-8-yl)-5-morpholinopicolinamide]	6
O=C(Nc1cccc2c1OC[C@H](CO)n1nnnc1-2)c1cc(-n2cnc(C3CC3)c2)ccn1 [Example 24, (S)-4-(4-cyclopropyl-1H-imidazol-1-yl)-N-(5-(hydroxymethyl)-5,6-dihydrobenzo[f]tetrazolo[1,5-d][1,4]oxazepin-8-yl)picolinamide]	6.2
Cc1cc(F)c(C(=O)Nc2cccc3c2OC[C@H](CF)n2nnnc2-3)cc1-n1cnc(C2CC2)c1 [Example 26, (R)-5-(4-cyclopropyl-1H-imidazol-1-yl)-2-fluoro-N-(5-(fluoromethyl)-5,6-dihydrobenzo[f]tetrazolo[1,5-d][1,4]oxazepin-8-yl)-4-methylbenzamide]	8
O=C(Nc1cccc2c1OC[C@H](CF)n1nnnc1-2)c1cc(-n2cnc(C3CC3)c2)ccn1 [Example 27, (R)-4-(4-cyclopropyl-1H-imidazol-1-yl)-N-(5-(fluoromethyl)-5,6-dihydrobenzo[f]tetrazolo[1,5-d][1,4]oxazepin-8-yl)picolinamide]	6.8

Other lines, results leading:

IC50 [nM]	Compound
0.5	Cc1cc(F)c(C(=O)Nc2cccc3c2OCC2(CC2)n2cnnc2-3)cc1-n1cnc(C2CC2)c1 [Example 10, 5-(4-cyclopropyl-1H-imidazol-1-yl)-2-fluoro-4-methyl-N-(6H-spiro[benzo[f][1,2,4]triazolo[4,3-d][1,4]oxazepine-5,1′-cyclopropan]-8-yl)benzamide]
4.7	Cc1cc(F)c(C(=O)Nc2cccc3c2OC[C@@H](C2CC2)n2nnnc2-3)cc1-n1cnc(C2CC2)c1 [Example 12, (R)-5-(4-cyclopropyl-1H-imidazol-1-yl)-N-(5-cyclopropyl-5,6-dihydrobenzo[f]tetrazolo[1,5-d][1,4]oxazepin-8-yl)-2-fluoro-4-methylbenzamide]
5.2	Cc1cc(F)c(C(=O)Nc2cccc3c2OCC(C)(C)n2nnnc2-3)cc1-n1cnc(C2CC2)c1 [Example 13, 5-(4-cyclopropyl-1H-imidazol-1-yl)-N-(5,5-dimethyl-5,6-dihydrobenzo[f]tetrazolo[1,5-d][1,4]oxazepin-8-yl)-2-fluoro-4-methylbenzamide]
4.2	Cc1cc(F)c(C(=O)Nc2cccc3c2OCC2(CC2)n2nnnc2-3)cc1-n1cnc(C2CC2)c1 [Example 14, 5-(4-cyclopropyl-1H-imidazol-1-yl)-2-fluoro-4-methyl-N-(6H-spiro[benzo[f]tetrazolo[1,5-d][1,4]oxazepine-5,1′-cyclopropan]-8-yl)benzamide]
2.2	C[C@@H]1COc2c(NC(=O)c3cc(-n4cnc(C5CC5)c4)c(N4CCOCC4)cn3)cccc2-c2nnnn21 [Example 19, (R)-4-(4-cyclopropyl-1H-imidazol-1-yl)-N-(5-methyl-5,6-dihydrobenzo[f]tetrazolo[1,5-d][1,4]oxazepin-8-yl)-5-morpholinopicolinamide]
0.6	C[C@H]1COc2c(NC(=O)c3cc(-n4cnc(C5CC5)c4)c(N4CCOCC4)cn3)cccc2-c2nnnn21 [Example 22, (S)-4-(4-cyclopropyl-1H-imidazol-1-yl)-N-(5-methyl-5,6-dihydrobenzo[f]tetrazolo[1,5-d][1,4]oxazepin-8-yl)-5-morpholinopicolinamide]
0.9	Cc1cc(F)c(C(=O)Nc2cccc3c2OC[C@H](CO)n2nnnc2-3)cc1-n1cnc(C2CC2)c1 [Example 23, (S)-5-(4-cyclopropyl-1H-imidazol-1-yl)-2-fluoro-N-(5-(hydroxymethyl)-5,6-dihydrobenzo[f]tetrazolo[1,5-d][1,4]oxazepin-8-yl)-4-methylbenzamide]
3.3	O=C(Nc1cccc2c1OCC1(CC1)n1cnnc1-2)c1cc(-n2cnc(C3CC3)c2)c(N2CCOCC2)cn1 [Example 25, 4-(4-cyclopropyl-1H-imidazol-1-yl)-5-morpholino-N-(6H-spiro[benzo[f][1,2,4]triazolo[4,3-d][1,4]oxazepine-5,1′-cyclopropan]-8-yl)picolinamide]
4.5	Cc1cc(F)c(C(=O)Nc2cccc3c2OC[C@@H](CF)n2cnnc2-3)cc1-n1cnc(C2CC2)c1 [Example 28, (S)-5-(4-cyclopropyl-1H-imidazol-1-yl)-2-fluoro-N-(5-(fluoromethyl)-5,6-dihydrobenzo[f][1,2,4]triazolo[4,3-d][1,4]oxazepin-8-yl)-4-methylbenzamide]
